Laboratory results taken from US20230398130A1, “METHODS AND COMPOSITIONS FOR DIFFERENTIATING STEM CELLS” (Massachusetts Institute of Technology, priority 2020, published 2023).

Columns and labels:
ISC-enriched organoids [1] = assay: Primary screen, 384-well 2.5-D organoid differentiation (ENR+CD, 6 days): basal lysozyme secretion (LYZ.NS); assay type: cell-based, murine; conditions: for SSMD.LYZ.NS: strictly standardized mean difference; for Dose.FC.LYZ.NS: FC vs plate median
Source text: (§1) High-throughput screening.

ISC-enriched organoids [2] = assay: Primary screen, 384-well 2.5-D organoid differentiation (ENR+CD, 6 days): carbachol-induced lysozyme secretion (LYZ.S); assay type: cell-based, murine; conditions: for Z.LYZ.S: standard z score; for SSMD.LYZ.S: strictly standardized mean difference; for Dose.FC.LYZ.S: FC vs plate median
Source text: as §1

ISC-enriched organoids [3] = assay: Primary screen, 384-well 2.5-D organoid differentiation (ENR+CD, 6 days, Target Selective Inhibitor Library, vs whole-plate median): ATP (CellTiter-Glo 3D, CTG); conditions: for SSMD.CTG: strictly standardized mean difference; for Dose.FC.CTG: FC vs plate median
[4] = primary screen, 1st of the 4 dose lines of the treatment (dose not given)
[5] = primary screen, 2nd of the 4 dose lines of the treatment (dose not given)
[6] = primary screen, 3rd of the 4 dose lines of the treatment (dose not given)
[7] = primary screen, 4th of the 4 dose lines of the treatment (dose not given)
[8] = Dose 0.08 uM, standard z score of FC
[9] = Dose 0.40 uM, standard z score of FC
[10] = Dose 2.00 uM, standard z score of FC
[11] = Dose 10.00 uM, standard z score of FC
[12] = Dose 0.08 uM, primary screen, standard z score
[13] = Dose 0.40 uM, primary screen, standard z score
[14] = Dose 2.00 uM, primary screen, standard z score
[15] = Dose 10.00 uM, primary screen, standard z score
[16] = primary screen, dose 0.08 uM, ENR+CD 6 days
[17] = primary screen, dose 0.08 uM, standard z score of FC
[18] = primary screen, dose 0.40 uM, ENR+CD 6 days
[19] = primary screen, dose 0.40 uM, standard z score of FC
[20] = primary screen, dose 2.00 uM, ENR+CD 6 days
[21] = primary screen, dose 2.00 uM, standard z score of FC
[22] = primary screen, dose 10.00 uM, ENR+CD 6 days
[23] = primary screen, dose 10.00 uM, standard z score of FC

C=CCn1c(=O)c2cnc(Nc3ccc(N4CCN(C)CC4)cc3)nc2n1-c1cccc(C(C)(C)O)n1 [MK-1775]
SSMD.LYZ.NS (ISC-enriched organoids [1]; [4]): 0.317
SSMD.LYZ.NS (ISC-enriched organoids [1]; [5]): −1.150
SSMD.LYZ.NS (ISC-enriched organoids [1]; [6]): −1.545
SSMD.LYZ.NS (ISC-enriched organoids [1]; [7]): −0.993
Z.LYZ.S (ISC-enriched organoids [2]; [4]): 0.424
Z.LYZ.S (ISC-enriched organoids [2]; [5]): −1.404
Z.LYZ.S (ISC-enriched organoids [2]; [6]): −1.345
Z.LYZ.S (ISC-enriched organoids [2]; [7]): −1.643
SSMD.LYZ.S (ISC-enriched organoids [2]; [4]): 0.440
SSMD.LYZ.S (ISC-enriched organoids [2]; [5]): −1.378
SSMD.LYZ.S (ISC-enriched organoids [2]; [6]): −1.357
SSMD.LYZ.S (ISC-enriched organoids [2]; [7]): −1.331
Z.CTG (ISC-enriched organoids [3]; [8]): 0.393
Z.CTG (ISC-enriched organoids [3]; [9]): −1.074
Z.CTG (ISC-enriched organoids [3]; [10]): −1.919
Z.CTG (ISC-enriched organoids [3]; [11]): −2.451
SSMD.CTG (ISC-enriched organoids [3]; [4]): 0.536
SSMD.CTG (ISC-enriched organoids [3]; [5]): −1.242
SSMD.CTG (ISC-enriched organoids [3]; [6]): −1.697
SSMD.CTG (ISC-enriched organoids [3]; [7]): −1.818

COc1ccc2c(c1)c(C1=C(c3c[nH]c4ccccc34)C(=O)NC1=O)cn2CCCN(C)C [Go 6983]
Dose.FC.LYZ.NS (ISC-enriched organoids [1]; Dose 0.08 uM, primary screen): −0.005 log 2 fold change
Z.LYZ.NS (ISC-enriched organoids [1]; [12]): −0.046
Dose.FC.LYZ.NS (ISC-enriched organoids [1]; Dose 0.40 uM, primary screen): 0.013 log 2 fold change
Z.LYZ.NS (ISC-enriched organoids [1]; [13]): 0.114
Dose.FC.LYZ.NS (ISC-enriched organoids [1]; Dose 2.00 uM, primary screen): 0.091 log 2 fold change
Z.LYZ.NS (ISC-enriched organoids [1]; [14]): 0.791
Dose.FC.LYZ.NS (ISC-enriched organoids [1]; Dose 10.00 uM, primary screen): −0.092 log 2 fold change
Z.LYZ.NS (ISC-enriched organoids [1]; [15]): −0.798
Dose.FC.LYZ.S (ISC-enriched organoids [2]; Dose 0.08 uM, primary screen): 0.021 log 2 fold change
Dose.FC.LYZ.S (ISC-enriched organoids [2]; Dose 0.40 uM, primary screen): 0.007 log 2 fold change
Dose.FC.LYZ.S (ISC-enriched organoids [2]; Dose 2.00 uM, primary screen): −0.010 log 2 fold change
Dose.FC.LYZ.S (ISC-enriched organoids [2]; Dose 10.00 uM, primary screen): −0.073 log 2 fold change
Dose.FC.CTG (ISC-enriched organoids [3]; Dose 0.08 uM, primary screen): 0.021 log 2 fold change
Z.CTG (ISC-enriched organoids [3]; [12]): 0.050
Dose.FC.CTG (ISC-enriched organoids [3]; Dose 0.40 uM, primary screen): −0.036 log 2 fold change
Z.CTG (ISC-enriched organoids [3]; [13]): −0.085
Dose.FC.CTG (ISC-enriched organoids [3]; Dose 2.00 uM, primary screen): 0.058 log 2 fold change
Z.CTG (ISC-enriched organoids [3]; [14]): 0.138
Dose.FC.CTG (ISC-enriched organoids [3]; Dose 10.00 uM, primary screen): −0.181 log 2 fold change
Z.CTG (ISC-enriched organoids [3]; [15]): −0.433

CC(C)NC[C@@H](C(=O)N1CCN(c2ncnc3c2[C@H](C)C[C@H]3O)CC1)c1ccc(Cl)cc1 [GDC-0068]
Dose.FC.LYZ.NS (ISC-enriched organoids [1]; Dose 0.08 uM, ENR+CD, 6 days): 0.036 log 2 fold change
Z.LYZ.NS (ISC-enriched organoids [1]; [8]): 0.311
Dose.FC.LYZ.NS (ISC-enriched organoids [1]; Dose 0.40 uM, ENR+CD, 6 days): 0.054 log 2 fold change
Z.LYZ.NS (ISC-enriched organoids [1]; [9]): 0.469
Dose.FC.LYZ.NS (ISC-enriched organoids [1]; Dose 2.00 uM, ENR+CD, 6 days): −0.077 log 2 fold change
Z.LYZ.NS (ISC-enriched organoids [1]; [10]): −0.675
Dose.FC.LYZ.NS (ISC-enriched organoids [1]; Dose 10.00 uM, ENR+CD, 6 days): −0.185 log 2 fold change
Z.LYZ.NS (ISC-enriched organoids [1]; [11]): −1.613
Dose.FC.LYZ.S (ISC-enriched organoids [2]; Dose 0.08 uM, ENR+CD, 6 days): 0.076 log 2 fold change
Dose.FC.LYZ.S (ISC-enriched organoids [2]; Dose 0.40 uM, ENR+CD, 6 days): 0.087 log 2 fold change
Dose.FC.LYZ.S (ISC-enriched organoids [2]; Dose 2.00 uM, ENR+CD, 6 days): −0.059 log 2 fold change
Dose.FC.LYZ.S (ISC-enriched organoids [2]; Dose 10.00 uM, ENR+CD, 6 days): −0.319 log 2 fold change
Dose.FC.CTG (ISC-enriched organoids [3]; Dose 0.08 uM, ENR+CD, 6 days): 0.042 log 2 fold change
Z.CTG (ISC-enriched organoids [3]; [8]): 0.099
Dose.FC.CTG (ISC-enriched organoids [3]; Dose 0.40 uM, ENR+CD, 6 days): 0.118 log 2 fold change
Z.CTG (ISC-enriched organoids [3]; [9]): 0.283
Dose.FC.CTG (ISC-enriched organoids [3]; Dose 2.00 uM, ENR+CD, 6 days): 0.184 log 2 fold change
Z.CTG (ISC-enriched organoids [3]; [10]): 0.439
Dose.FC.CTG (ISC-enriched organoids [3]; Dose 10.00 uM, ENR+CD, 6 days): −0.100 log 2 fold change
Z.CTG (ISC-enriched organoids [3]; [11]): −0.238

COc1cc(N2CCC(N)CC2)ccc1Nc1ncc(Cl)c(-c2c[nH]c3ccccc23)n1 [AZD3463]
Dose.FC.LYZ.NS (ISC-enriched organoids [1]; [16]): −0.147 log 2 fold change
Z.LYZ.NS (ISC-enriched organoids [1]; [17]): −1.279
Dose.FC.LYZ.NS (ISC-enriched organoids [1]; [18]): −0.190 log 2 fold change
Z.LYZ.NS (ISC-enriched organoids [1]; [19]): −1.652
Dose.FC.LYZ.NS (ISC-enriched organoids [1]; [20]): −0.232 log 2 fold change
Z.LYZ.NS (ISC-enriched organoids [1]; [21]): −2.021
Dose.FC.LYZ.NS (ISC-enriched organoids [1]; [22]): −0.209 log 2 fold change
Z.LYZ.NS (ISC-enriched organoids [1]; [23]): −1.820
Dose.FC.LYZ.S (ISC-enriched organoids [2]; [16]): −0.199 log 2 fold change
Dose.FC.LYZ.S (ISC-enriched organoids [2]; [18]): −0.293 log 2 fold change
Dose.FC.LYZ.S (ISC-enriched organoids [2]; [20]): −0.315 log 2 fold change
Dose.FC.LYZ.S (ISC-enriched organoids [2]; [22]): −0.328 log 2 fold change
Dose.FC.CTG (ISC-enriched organoids [3]; [16]): −0.275 log 2 fold change
Z.CTG (ISC-enriched organoids [3]; [17]): −0.657
Dose.FC.CTG (ISC-enriched organoids [3]; [18]): −0.341 log 2 fold change
Z.CTG (ISC-enriched organoids [3]; [19]): −0.814
Dose.FC.CTG (ISC-enriched organoids [3]; [20]): −0.772 log 2 fold change
Z.CTG (ISC-enriched organoids [3]; [21]): −1.843
Dose.FC.CTG (ISC-enriched organoids [3]; [22]): −0.960 log 2 fold change
Z.CTG (ISC-enriched organoids [3]; [23]): −2.293
